Assay results published in patent US7598377B2, “Inhibition of phosphoinositide 3-kinase β” (AstraZeneca AB, priority 2002, dated 2009).

Experiments:
Assay type in all cases: biochemical
P110 γ = biological target: T1, P110 γ (Homo sapiens, UniProt P48736); assay: Isoform selective in vitro PI3K enzyme assay (Example 13), γ recombinant; settings: read-out: P110 γ IC50s
T1 construct: made in house
Description: (§1) In vitro enzyme assays were conducted as a primary screen to determine drug candidate isoform affinity and specificity. The α and β isoforms of the PI3K were immunoprecipitated from a platelet lysate, using an antibodies obtained from Santa Cruz Biotechnology, that recognized specific regions of p110α (sc-7174) and β (sc-603) isoforms. The γ isoform was produced as a recombinant protein in the Kinacia laboratories. […] Standard phosphorylation assays using phosphatidylinositol and ^32P were used to measure the enzyme activity in the immunoprecipates in the presence or absence of an inhibitor. Enzyme activity was determined over a range of inhibitor concentrations to establish an IC50 value.

[1] = system: PI 3-kinase immunoprecipitated from human platelets (p85/110 form); assay: In vitro PI 3-kinase assay (Example 8), Platelet IP (p85); settings: read-out: Platelet IP (p85) IC50s
Description: The effect of pyridine-substituted compounds on PI 3-kinase activity was determined using an in vitro PI 3-kinase assay. This assay was performed using PI 3-kinase immunoprecipitated from human platelets as the enzyme and PI as the substrate. The PI 3-kinase activity was quantitated by measuring the enzymatic incorporation of [^32P] into PI, forming PI([^32P]-3)P, as previously described (Susa et al., 1992, The Journal of Biological Chemistry 267(32):22951-22956.
Washed human platelets were lysed in Triton X-100 lysis buffer (10 mM Tris, pH 7.4, 1% Triton X-100, 2 mM EDTA, 1 mM PMSF) for 30 minutes. The Triton X-100 insoluble fraction was removed by centrifugation of the cell lysates at 15,000 g for 10 minutes. PI 3-kinase was immunoprecipitated by mixing 500 μg of the cell lysate with 1 μg of a rabbit anti-rat antibody against the p85/110 form of PI 3-kinase and 30 μl of 50% Protein A-sepharose beads for 2 hours at 4° C. The Protein A-sepharose-bound PI 3-kinase was isolated by pelleting the beads at 15,000 g for 5 seconds, and washing three times with ice-cold Triton X-100 lysis buffer followed by four washes with PI 3-kinase assay buffer (20 mM HEPES, pH 7.4, 1 mM EGTA, 5 mM MgCl2).
PI stored in CHCl3 was dried under N2, resuspended in the lipid buffer (50 mM HEPES, pH 7.2, 1 mM EDTA) at a final concentration of 330 μg/ml, and sonicated for 6 minutes on ice. PI([^32P]-3)P was generated by mixing the immunoprecipitated PI 3-kinase for 20 minutes with 40 μl of the PI, 10 μl of ATP (1 mM) and ^32P-r-ATP (0.5 μCi, 1 μCi/nmol), 10 μl of 10× kinase buffer, in a final assay volume of 100 μl adjusted with H2O. TGX-was preincubated with the PI 3-kinase for 5 minutes prior to the addition of ATP. The assay was terminated with 100 μl of 1 N HCl, and the PI([^32P]-3)P product extracted with 200 μl chloroform:methanol (1:1) and 500 μl 2 M KCl. The PI([^32P]-3)P in the chloroform phase was resolved by thin layer chromatography using a solvent system containing CHCl3:MeOH:HAC:H2O (43:38:5:7) (v:v:v:v), and visualized by autoradiography. The PI([^32P]-3)P spots were then scraped off from the TLC plates, deacylated with 1 ml methylamine:butanol:methanol (42:9:47) (v:v:v) for 4 hours at 53° C., and quantitated using a liquid scintillation counter (LKB 1209 RackBETA).

P110 δ = biological target: T2, P110 δ (Homo sapiens, UniProt O00329); assay: Isoform selective in vitro PI3K enzyme assay (Example 13), δ from THP-1 cells; settings: read-out: P110 δ IC50s
T2 construct: The δ isoform was immunoprecipitated from THP-1 cells; endogenous in cells; host or cells: THP-1 cells (immunoprecipitated with antibody sc-7176)
T2 sequence (O00329 whole entry, canonical isoform): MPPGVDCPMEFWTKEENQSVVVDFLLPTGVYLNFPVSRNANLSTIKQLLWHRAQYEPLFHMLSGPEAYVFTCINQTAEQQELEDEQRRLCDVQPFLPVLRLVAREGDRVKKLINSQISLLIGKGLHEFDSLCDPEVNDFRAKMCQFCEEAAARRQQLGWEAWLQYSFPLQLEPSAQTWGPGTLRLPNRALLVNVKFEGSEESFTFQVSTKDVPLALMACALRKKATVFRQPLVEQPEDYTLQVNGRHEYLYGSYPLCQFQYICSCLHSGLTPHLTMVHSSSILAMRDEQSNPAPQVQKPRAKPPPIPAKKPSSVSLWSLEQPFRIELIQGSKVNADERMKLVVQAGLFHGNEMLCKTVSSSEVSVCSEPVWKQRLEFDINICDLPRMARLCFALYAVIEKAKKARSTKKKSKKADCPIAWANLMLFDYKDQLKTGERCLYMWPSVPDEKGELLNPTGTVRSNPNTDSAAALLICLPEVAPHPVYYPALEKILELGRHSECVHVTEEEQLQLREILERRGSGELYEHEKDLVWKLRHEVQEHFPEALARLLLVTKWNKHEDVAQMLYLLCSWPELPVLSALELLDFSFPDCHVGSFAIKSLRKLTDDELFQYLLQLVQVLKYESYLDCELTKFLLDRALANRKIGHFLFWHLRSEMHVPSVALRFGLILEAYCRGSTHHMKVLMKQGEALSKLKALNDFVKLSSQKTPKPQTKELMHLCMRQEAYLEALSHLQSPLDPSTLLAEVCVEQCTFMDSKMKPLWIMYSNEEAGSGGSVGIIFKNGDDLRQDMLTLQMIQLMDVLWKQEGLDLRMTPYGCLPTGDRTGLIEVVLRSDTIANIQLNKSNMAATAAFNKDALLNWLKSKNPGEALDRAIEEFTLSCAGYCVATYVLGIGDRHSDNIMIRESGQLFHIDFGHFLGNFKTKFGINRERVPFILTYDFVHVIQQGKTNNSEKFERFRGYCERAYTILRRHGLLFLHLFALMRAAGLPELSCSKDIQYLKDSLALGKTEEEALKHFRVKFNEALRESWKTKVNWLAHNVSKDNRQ
T2 sequence (P27986 whole entry partner, canonical isoform): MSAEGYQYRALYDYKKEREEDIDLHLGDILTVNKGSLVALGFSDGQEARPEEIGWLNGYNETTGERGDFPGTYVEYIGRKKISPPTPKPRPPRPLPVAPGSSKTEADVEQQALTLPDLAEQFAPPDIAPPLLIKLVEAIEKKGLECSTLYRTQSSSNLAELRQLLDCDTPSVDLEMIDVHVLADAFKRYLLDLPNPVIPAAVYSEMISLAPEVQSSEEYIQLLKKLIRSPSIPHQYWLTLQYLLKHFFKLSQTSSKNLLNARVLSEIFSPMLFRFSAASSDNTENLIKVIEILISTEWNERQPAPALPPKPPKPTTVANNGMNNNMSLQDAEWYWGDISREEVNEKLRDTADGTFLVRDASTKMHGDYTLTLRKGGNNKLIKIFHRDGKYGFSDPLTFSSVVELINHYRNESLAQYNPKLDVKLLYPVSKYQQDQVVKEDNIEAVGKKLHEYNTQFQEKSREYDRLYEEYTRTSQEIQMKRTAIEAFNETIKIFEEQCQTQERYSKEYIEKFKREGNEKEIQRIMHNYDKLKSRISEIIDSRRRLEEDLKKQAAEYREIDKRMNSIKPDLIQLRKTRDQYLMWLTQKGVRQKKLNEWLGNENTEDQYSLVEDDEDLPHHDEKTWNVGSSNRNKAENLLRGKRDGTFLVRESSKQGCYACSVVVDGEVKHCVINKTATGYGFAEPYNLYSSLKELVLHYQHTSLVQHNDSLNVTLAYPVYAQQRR
Description: as §1, with “The α and β isoforms of the PI3K were immunoprecipitated from a platelet lysate, using an antibodies obtained from Santa Cruz Biotechnology, that recognized specific regions of p110α (sc-7174) and β (sc-603) isoforms.” left out

T1 sequence (P48736 whole entry, species assumed, canonical isoform): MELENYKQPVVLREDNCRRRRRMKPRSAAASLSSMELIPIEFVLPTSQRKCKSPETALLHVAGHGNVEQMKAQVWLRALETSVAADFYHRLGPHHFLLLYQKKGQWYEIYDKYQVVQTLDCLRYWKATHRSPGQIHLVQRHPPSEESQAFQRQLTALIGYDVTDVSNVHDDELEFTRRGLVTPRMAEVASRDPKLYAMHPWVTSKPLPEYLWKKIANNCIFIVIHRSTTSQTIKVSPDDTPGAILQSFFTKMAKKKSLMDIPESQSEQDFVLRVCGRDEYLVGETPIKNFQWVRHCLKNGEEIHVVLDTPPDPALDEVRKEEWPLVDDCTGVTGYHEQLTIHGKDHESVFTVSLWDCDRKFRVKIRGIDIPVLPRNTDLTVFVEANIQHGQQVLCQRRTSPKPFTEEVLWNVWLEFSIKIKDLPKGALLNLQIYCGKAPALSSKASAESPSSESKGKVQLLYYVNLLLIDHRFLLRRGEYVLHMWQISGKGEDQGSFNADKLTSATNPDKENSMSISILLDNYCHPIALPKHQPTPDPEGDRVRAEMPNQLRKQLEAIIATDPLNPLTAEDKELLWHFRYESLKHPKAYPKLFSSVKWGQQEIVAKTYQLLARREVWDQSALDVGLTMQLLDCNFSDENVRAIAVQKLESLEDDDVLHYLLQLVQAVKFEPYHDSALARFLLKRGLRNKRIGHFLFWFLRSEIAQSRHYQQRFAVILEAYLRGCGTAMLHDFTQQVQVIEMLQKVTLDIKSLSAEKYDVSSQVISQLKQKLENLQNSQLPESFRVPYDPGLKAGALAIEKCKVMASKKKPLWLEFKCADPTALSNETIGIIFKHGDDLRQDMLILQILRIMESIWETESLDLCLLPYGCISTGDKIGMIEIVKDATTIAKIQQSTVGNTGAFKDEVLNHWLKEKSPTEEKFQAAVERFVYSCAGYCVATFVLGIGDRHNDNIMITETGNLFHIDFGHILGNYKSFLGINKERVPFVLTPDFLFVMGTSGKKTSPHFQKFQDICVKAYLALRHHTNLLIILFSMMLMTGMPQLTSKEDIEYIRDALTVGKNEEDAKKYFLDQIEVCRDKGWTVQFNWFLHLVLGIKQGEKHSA

| IC50 (P110 γ) | IC50 [1] | IC50 (P110 δ) | Compound |
| --- | --- | --- | --- |
| 5000 nM | 500 nM | 1000 nM | 6-methyl-8-(2-acetamido)phenylaminomethyl-2-(4-pyridinyl)-4H-benzopyran-1-one [KN326] |
|  | 500 nM |  | 8-Naphthyl-2-(4-pyridinyl)-4(1H)-quinolinone [KN350] |
| 1500 nM | 10 nM | 500 nM | Cc1cc(C(C)Nc2ccc(F)cc2C)c2oc(-c3ccncc3)cc(=O)c2c1 (stereo not drawn) [KN303, 8-1-(4-fluoro-2-methylphenylamino)ethyl-6-methyl-2-(4-pyridinyl)-4H-1-benzopyran-4-one] |
| 7500 nM | 100 nM | 1000 nM | Cc1cc(C(C)Nc2cccc(C)n2)c2oc(-c3ccncc3)cc(=O)c2c1 (stereo not drawn) [KN310, 8-1-(6-methylpyridin-2-ylamino)ethyl-6-methyl-2-(4-pyridinyl)-4H-1-benzopyran-4-one] |
|  | 50 nM |  | Cc1cc(CNc2ccccc2)c2oc(-c3ccncc3)cc(=O)c2c1 [KN312, 6-methyl-8-phenylaminomethyl-2-(4-pyridinyl)-4H-benzopyran-1-one] |
|  | 100 nM | 5000 nM | Cc1cc(COc2ccccc2)c2oc(-c3ccncc3)cc(=O)c2c1 [KN313, 6-methyl-8-phenoxymethyl-2-(4-pyridinyl)-4H-benzopyran-1-one] |
| 5000 nM | > 100 nM | 5000 nM | Cc1cc(CNc2ccccn2)c2oc(-c3ccncc3)cc(=O)c2c1 [KN315, 6-methyl-8-(2-pyridinyl)aminomethyl-2-(4-pyridinyl)-4H-benzopyran-1-one] |
|  | 1000 nM | 1000 nM | O=c1cc(-c2ccncc2)nc2c(NCCc3ccccc3)cccn12 [KN316, 9-(2-phenethyl)amino-2-(4-pyridinyl)-4H-Pyrido[1,2-a]pyrimidin-4-one] |
|  | > 100 nM | 5000 nM | Cc1cc(C(C)Oc2ccccc2)c2oc(-c3ccncc3)cc(=O)c2c1 (stereo not drawn) [KN317, 6-methyl-8-1-(phenoxy)ethyl-2-(4-pyridinyl)-4H-benzopyran-1-one] |
| 20000 nM | 500 nM | 300 nM | O=c1cc(-c2ccncc2)[nH]c2c(Oc3ccccc3)cccc12 [KN319, 8-phenoxy-2-(4-pyridinyl)-4-(1H)-quinolinone] |
|  | 1000 nM | 1000 nM | Cc1cc(C(C)Nc2cccc(C(F)(F)F)c2)c2oc(-c3ccncc3)cc(=O)c2c1 (stereo not drawn) [KN322, 8-1-(3-trifluoromethylphenylamino)ethyl-6-methyl-2-(4-pyridinyl)-4H-1-benzopyran-4-one] |
|  | 50 nM |  | Cc1cc(C(C)n2c(C(F)(F)F)nc3ccccc32)c2oc(-c3ccncc3)cc(=O)c2c1 (stereo not drawn) [KN328, 6-methyl-8-1-(2-trifluoromethyl-benzimidazol-1-yl)-ethyl-2-(4-pyridinyl)-4H-benzopyran-1-one] |
|  | 1000 nM | 1000 nM | O=c1cc(-c2ccncc2)oc2c(OCc3ccccc3)cccc12 [KN335, 8-Benzyloxy-2-(4-pyridinyl)-4H-benzopyran-1-one] |
| 10000 nM | 1000 nM | 200 nM | O=c1cc(-c2ccncc2)oc2c(NCc3ccccc3)cccc12 [KN336] |
| > 10000 nM | 200 nM | 200 nM | Cc1cc(F)ccc1Oc1cccc2c(=O)cc(-c3ccncc3)[nH]c12 [KN337, 8-(4-Fluoro-2-methylphenoxy)-2-(4-pyridinyl)-4(1H)-quinolinone] |
| > 10000 nM |  | > 10000 nM | Cc1cc(C(C)Nc2ccccc2)c2oc(-c3cc(C)nc(Cl)c3)cc(=O)c2c1 (stereo not drawn) [KN340, 8-1-(phenylamino)ethyl-6-methyl-2-(2-chloro-6-methyl-4-pyridinyl)-4H-1-benzopyran-4-one] |
| 5000 nM | 500 nM | 50 nM | O=c1cc(-c2ccncc2)oc2c(Nc3ccccc3)cccc12 [KN341] |
| > 10000 nM |  | > 10000 nM | O=c1cc(-c2ccncc2)oc2cc(OCc3ccccc3)ccc12 [KN342, 7-Benzyloxy-2-(4-pyridinyl)-4H-benzopyran-1-one] |
| > 10000 nM | 5000 nM |  | COc1cccc2c(=O)cc(-c3ccncc3)[nH]c12 [KN344, 8-methoxy-2-(4-pyridinyl)-4(1H)-quinolinone] |
| > 10000 nM | 5000 nM |  | O=c1cc(-c2ccncc2)[nH]c2c(-c3ccccc3)cccc12 [KN345, 8-phenyl-2-(4-pyridinyl)-4(1H)-quinoline] |
| > 10000 nM | > 10000 nM | 10000 nM | O=c1cc(-c2ccncc2)[nH]c2c(Cc3ccccc3)cccc12 [KN346, 8-Benzyl-2-(4-pyridinyl)-4(1H)-quinolinone] |
| > 10000 nM | > 10000 nM | > 10000 nM | Cc1cccn2c(=O)cc(-c3ccncc3)nc12 [KN347, 9-methyl-2-(4-pyridinyl)-4H-Pyrido[1,2-a]pyrimidin-4-one] |
| > 10000 nM | 500 nM | 2000 nM | O=c1cc(-c2ccncc2)nc2c(Cc3ccccc3)cccn12 [KN349, 9-Benzyl-2-(4-pyridinyl)-4H-Pyrido[1,2-a]pyrimidin-4-one] |
|  | 500 nM |  | O=c1cc(-c2ccncc2)oc2c(Nc3cccc(F)c3)cccc12 [KN351, 8-(3-Fluorophenylamino)-2-(4-pyridinyl)-4H-benzopyran-1-one] |
| > 20000 nM |  | > 10000 nM | Cc1cc(-c2ccccc2)c2oc(-c3ccncc3)cc(=O)c2c1 [TGX258, 8-Phenyl-6-methyl-2-(4-pyridinyl)-4H-benzopyran-1-one] |
